Experimental data from patent US20220249454A1, “INHIBITORS OF MONOCARBOXYLATE TRANSPORTERS FOR CANCER IMMUNOTHERAPY” (NIROGY THERAPEUTICS, INC., priority 2021, published 2022).

Tests used:
[1] = test system: panel of solid and haemotological tumor cell lines (e.g., Hs578t, SiHa, MDA-MB-231); assay: MTS cell proliferation assay (cytotoxicity); format: cell-based; details: Table 1 (Group 1), 72-96 hours, 10 mM lactate medium or RPMI 1640 medium, cell line not stated
[2] = test system: monocarboxylate transporters; assay: Lactate detection assay in cancer cell lines (intracellular lactate, Lactate-glo); format: cell-based; details: 24 hours incubation
Description: Cells are maintained in their appropriate growth medium (RPMI medium with 2 g/L glucose, 2 mM L-glutamine supplemented with 10% FBS and P/S (growth medium). 15,000-25,000 cells were seeded into white 96-well plates in growth medium and incubated for 24 hours at 37° C. and 5% CO2. A duplicate plate was also seeded for normalization by an MTS assay. Dry weight compound stocks were dissolved to a concentration of 10 mM in 100% DMSO. Compounds were further diluted in the assay medium (Lactate media: 10 mM lactate, 5% FBS, and 1× P/S; Glucose media: RPMI, 5% FBS, and 1× P/S). Growth media was changed 24 hours later to assay medium containing 10 μM compound or vehicle (DMSO) control and incubated for 24 hours. Conditioned media was collected and the cells were washed in 200 μL ice-cold PBS. […] After a 5 minute incubation, 12.5 μL Neutralization solution (1M Trizma) is incubated for 1 minute. Intracellular lactate measurements were performed using a Lactate-glo kit (Promega). Briefly, the lactate detection reagent is mixed immediately before use and 50 μL is pipetted into each well and incubated at room temperature for 1 hour. Lactate is oxidized by enzymatic reactions to generate light. The luminescence is recorded using a Spectramax M5e plate reader and the concentration of lactate is determined using a known concentration of spiked lactate in PBS using GraphPad Prism.

[3] = target: T1, monocarboxylate transporter 4 (MCT4) (Homo sapiens, UniProt O15427); details: literature value; cited from earlier work
T1 sequence (O15427 2-465 limits assumed): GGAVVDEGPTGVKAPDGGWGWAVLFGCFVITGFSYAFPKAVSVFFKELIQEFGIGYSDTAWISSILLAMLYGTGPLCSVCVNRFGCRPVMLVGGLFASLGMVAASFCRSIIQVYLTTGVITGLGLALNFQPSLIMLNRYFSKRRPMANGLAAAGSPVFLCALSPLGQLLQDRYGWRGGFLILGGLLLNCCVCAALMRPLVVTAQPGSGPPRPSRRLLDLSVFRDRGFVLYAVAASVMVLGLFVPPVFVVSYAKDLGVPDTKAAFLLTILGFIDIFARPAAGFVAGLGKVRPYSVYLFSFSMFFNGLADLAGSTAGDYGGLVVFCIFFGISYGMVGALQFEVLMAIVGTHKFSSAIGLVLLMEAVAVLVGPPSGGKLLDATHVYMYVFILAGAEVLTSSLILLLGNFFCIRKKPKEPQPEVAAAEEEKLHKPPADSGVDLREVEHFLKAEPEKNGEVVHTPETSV
T1 sequence (P35613 140-385 partner limits assumed): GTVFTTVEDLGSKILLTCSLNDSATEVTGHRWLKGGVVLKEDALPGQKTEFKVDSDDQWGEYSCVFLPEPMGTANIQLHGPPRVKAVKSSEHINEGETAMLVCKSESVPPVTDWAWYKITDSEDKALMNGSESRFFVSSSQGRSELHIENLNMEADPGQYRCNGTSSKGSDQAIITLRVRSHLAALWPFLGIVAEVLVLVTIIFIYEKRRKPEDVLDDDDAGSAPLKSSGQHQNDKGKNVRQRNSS

[4] = target: T2, monocarboxylate transporter 1 (MCT1) (Homo sapiens, UniProt P53985); details: literature value; cited from earlier work
T2 sequence (P53985 1-500): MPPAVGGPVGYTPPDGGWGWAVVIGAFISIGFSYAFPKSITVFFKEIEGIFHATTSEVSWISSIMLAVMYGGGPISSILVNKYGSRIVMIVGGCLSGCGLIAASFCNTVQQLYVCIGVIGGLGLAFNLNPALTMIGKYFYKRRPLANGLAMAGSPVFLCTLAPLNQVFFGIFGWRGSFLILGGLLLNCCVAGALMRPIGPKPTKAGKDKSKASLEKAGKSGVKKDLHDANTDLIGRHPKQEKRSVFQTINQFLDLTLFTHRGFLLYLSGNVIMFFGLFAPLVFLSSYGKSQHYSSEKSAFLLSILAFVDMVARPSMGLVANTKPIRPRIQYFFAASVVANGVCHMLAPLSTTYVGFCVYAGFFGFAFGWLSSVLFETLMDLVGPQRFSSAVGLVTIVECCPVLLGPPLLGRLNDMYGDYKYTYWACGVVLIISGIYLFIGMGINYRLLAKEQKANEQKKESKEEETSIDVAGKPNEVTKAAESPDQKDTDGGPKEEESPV
T2 sequence (P35613 140-385 partner limits assumed): T1 sequence (P35613 140-385 partner limits assumed)

tumor cells = details: literature, Cell Reports 2019; cited from earlier work

Row | SMILES | IC50 [1] | IC50 [2] | IC50 [3] | IC50 [4] | concentration required to see efficacy in in vitro models (tumor cells)
1 | CN(Cc1ccccc1)c1cc2oc(=O)c(C(=O)O)cc2s1 [Compound 1.001, 2-(benzyl(methyl)amino)-5-oxo-5H-thieno[3,2-b]pyran-6-carboxylic acid] | < 1 µM | < 1 µM |  |  | 
2 | COc1cccc(C(=O)N(C)c2cc3oc(=O)c(C(=O)O)cc3s2)c1 [Compound 1.009, 2-(3-methoxy-N-methylbenzamido)-5-oxo-5H-thieno[3,2-b]pyran-6-carboxylic acid] | < 1 µM | < 1 µM |  |  | 
3 | COc1ccccc1C(=O)N(C)c1cc2oc(=O)c(C(=O)O)cc2s1 [Compound 1.017, 2-[(2-Methoxy-benzoyl)-methyl-amino]-5-oxo-5H-thieno[3,2-b]pyran-6-carboxylic acid] | < 1 µM | < 1 µM |  |  | 
4 | COc1cc(F)ccc1C(=O)N(C)c1cc2oc(=O)c(C(=O)O)cc2s1 [Compound 1.094, 2-(4-fluoro-2-methoxy-N-methylbenzamido)-5-oxo-5H-thieno[3,2-b]pyran-6-carboxylic acid] | < 1 µM | < 1 µM |  |  | 
5 | CN(Cc1ccc(F)cc1)c1cc2oc(=O)c(C(=O)O)cc2s1 [Compound 1.002, 2-((4-fluorobenzyl)(methyl)amino)-5-oxo-5H-thieno[3,2-b]pyran-6-carboxylic acid] | < 1 µM | < 1 µM |  |  | 
6 | O=C(O)Cc1ccccc1Nc1c(Cl)cccc1Cl [diclofenac] |  |  | 0.14 µM | 1.4 µM | 150 to 200 µM
